Converted amounts (≈) assume the structure as drawn.
Tests used:
Format in all cases: physicochemical
[1] = Solubility study at 37° C. (buffer, water, bio-relevant media, MeOH/DCM); conditions: listed as I-4 Form A
Method: In addition, residual solids were checked by chiral HPLC to confirm whether racemization occurs.
Accurate 4 mg of I-1 Form A, 5.13 mg of I-3 Form A, 4.63 mg of I-4 Form A was weighed into a 8 mL glass vial, respectively. 2 mL of solubility medium was added. The salt amount used is equivalent to 4 mg anhydrous free form. Obtained suspensions/solutions were stirred at 37° C. at 400 rpm for 2 hours and 24 hours and then centrifuged at 37° C. at 14,000 rpm for 5 min. Supernatants were analyzed by UPLC and PH meter for solubility and pH value, respectively. Residual solids (wet cakes) were characterized by XRPD to determine physical form and then analyzed by HPLC for chiral purity.

[2] = Suspension stability at 25° C.; conditions: for Purity / Solubility / pH / Chiral purity (solids) / Solubility (μg/mL) / Chiral purity, liquid / Chiral purity, solid: 25° C.; for Solubility (μg/mL): LOQ: 0.25 μg/mL
Method: Suspension stability: Suspension stability of I-1 Form A and the 2 salt candidates was investigated in pure water, 0.5% (w/w) Tween 80 aqueous solution and 0.5% (w/w) MC (400 cP)+2% (w/w) Vitamin E TPGS aqueous solution at 25° C. for 2 h and 24 h. Target concentration was 2 mg/mL.
To confirm whether racemization occurs for the 2 salts in 0.5% (w/w) MC (400 cP)+2% (w/w) Vitamin E TPGS aqueous solution, the suspension stability in this vehicle was repeated at target concentration of 10 mg/mL. […] The hygroscopicity of these salts were further investigated.
Accurate 10 mg of I-1 Form A, 12.83 mg of I-3 Form A, 11.58 mg of I-4 Form A was weighed into a 8 mL glass vial, respectively. 5 mL of suspension vehicle was added, respectively. The salt amount used is equivalent to 10 mg anhydrous free form. These suspensions were stirred at 25° C. with 400 rpm. These suspensions were taken out at 2 hours and 24 hours, then centrifuged at 14,000 rpm for 5 min. The supernatants were analyzed by HPLC and pH meter. Solids obtained (wet cakes) were characterized by XRPD and HPLC to determine the chiral purity.
Accurate […] of I-3 Form A, 46.3 mg of I-4 Form A was weighed into a 8 mL glass vial, respectively. 4 mL of solubility medium was added, respectively. The salt amount used is equivalent to 40 mg anhydrous free form. 4 mL of the aqueous vehicle (0.5% (w/w) MC (400 cP) and 2% (w/w) Vitamin E TPGS in water) was added, respectively. These suspensions were stirred at 25° C. with 400 rpm. These suspensions were taken out at 2 hours and 24 hours, then centrifuged at 14,000 rpm for 5 min. The supernatants were analyzed by HPLC for the solubility and chiral purity and analyzed by pH meter. Solids obtained (wet cakes) were characterized by XRPD and HPLC for chiral purity.

[3] = Salt screening (XRPD, chiral purity of hits)
Method: Based on the pKa of I-1 free form, 23 counter ions were selected as salt/cocrystal forming agents. Methanol, acetone and isopropyl acetate were used as screening solvents. 1.0 equivalent of selected counter ions/coformers was applied for salt screening. Slurry equilibration, slow evaporation and anti-solvent addition were used as crystallization methods. In total, about 70 screening experiments were conducted.
About 50 mg of I-1 Form A were added to a suitable amount of solvent and 1.0 equivalent of counter ions were added under stirring at 50° C. for 2 hours and then at 25° C. for at least 12 hours. MeOH, acetone and IPAc were used as screening solvents.
Obtained suspensions were taken out and centrifuged. Solids obtained were analyzed by XRPD and salt screening results were summarized in Table 5.1, Table 5.2, and Table 5.3.

[4] = 2 mg/mL, 0.5%(w/w) MC(400 cP) and 2%(w/w) Vitamin E TPGS in water, 2 h, listed as I-4 Form A
[5] = 2 mg/mL, 0.5%(w/w) MC(400 cP) and 2%(w/w) Vitamin E TPGS in water, 24 h, listed as I-4 Form A
[6] = 2 mg/mL, 0.5%(w/w) Tween 80 in water, 2 h, listed as I-4 Form A
[7] = 2 mg/mL, 0.5%(w/w) Tween 80 in water, 24 h, listed as I-4 Form A
[8] = 2 mg/mL, Pure water, 2 h, listed as I-4 Form A
[9] = 2 mg/mL, Pure water, 24 h, listed as I-4 Form A
[10] = 10 mg/mL, 0.5(w/w) MC(400 cP) and 2%(w/w) Vitamin E TPGS in water, 2 h, listed as I-4 Form A
[11] = 10 mg/mL, 0.5(w/w) MC(400 cP) and 2%(w/w) Vitamin E TPGS in water, 24 h, listed as I-4 Form A
[12] = crystalline hits of salt screening, listed as I-4 Form A

Question: For N#Cc1c(-c2cc(NC(=O)c3cc(F)cc(C(F)(F)F)c3)c3c(c2)C(=O)N[C@H]3c2cc(F)ccc2Cl)ccc2ncnn12 [Compound I-4], which “Chiral purity” value ([1]; FaSSIF-V1, pH 6.5, 2 hours) is on record?
Answer: purity: 98.3%)

Question: And the Solubility ([1]; FaSSIF-V1, pH 6.5, 2 hours)?
Answer: 44.1 μg/mL(chiral

Question: And the “Chiral purity (solids)” value ([1]; FaSSIF-V1, pH 6.5, 24 hours)?
Answer: 99.3%)

Question: What about the Solubility ([1]; FaSSIF-V1, pH 6.5, 24 hours) of the same compound?
Answer: 0.4 µg/mL (≈ 0.657 µM)

Question: What about the pH of supernatant ([1]; FaSSIF-V1, pH 6.5, 24 hours) of the same compound?
Answer: 6.15

Question: And the “Chiral purity” value ([1]; FeSSIF-V1, pH 5.0, 2 hours)?
Answer: purity: 97.7%)

Question: And the Solubility ([1]; FeSSIF-V1, pH 5.0, 2 hours)?
Answer: 239.1 μg/mL(chiral

Question: What about the “Chiral purity (solids)” value ([1]; FeSSIF-V1, pH 5.0, 24 hours) of the same compound?
Answer: 85.2%)

Question: What about the Solubility ([1]; FeSSIF-V1, pH 5.0, 24 hours) of the same compound?
Answer: 16.2 µg/mL (≈ 26.6 µM)

Question: And the pH of supernatant ([1]; FeSSIF-V1, pH 5.0, 24 hours)?
Answer: 4.84

Question: What about the Solubility ([1]; MeOH/DCM (1:2, v/v), 2 hours) of the same compound?
Answer: >111000 µg/mL

Question: And the Solubility ([1]; MeOH/DCM (1:2, v/v), 24 hours)?
Answer: >111000 µg/mL

Question: And the Solubility ([1]; SGF, pH 2.0, 2 hours)?
Answer: 3.2 µg/mL (≈ 5.26 µM)

Question: What about the “Chiral purity (solids)” value ([1]; SGF, pH 2.0, 24 hours) of the same compound?
Answer: 99.2%)

Question: What about the Solubility ([1]; SGF, pH 2.0, 24 hours) of the same compound?
Answer: 2.6 µg/mL (≈ 4.27 µM)

Question: And the pH of supernatant ([1]; SGF, pH 2.0, 24 hours)?
Answer: 1.89

Question: And the “Chiral purity (solids)” value ([1]; Water, 24 hours)?
Answer: 99.2%)

Question: And the pH of supernatant ([1]; Water, 24 hours)?
Answer: 2.52

Question: And the “solubility in MeOH/DCM (1:2, v/v)” value [1]?
Answer: > 111000 µg/mL

Question: And the “Chiral purity (solids)” value ([1]; pH 2, HCl, 24 hours)?
Answer: 99.3%)

Question: And the pH of supernatant ([1]; pH 2, HCl, 24 hours)?
Answer: 1.89

Question: What about the “physical form of residual solids after the test (XRPD)” value ([2]; 0.5% MC (400 cP)+2% Vitamin E TPGS, target 10 mg/mL) of the same compound?
Answer: converted to amorphous form

Question: What about the Purity [2, 4] of the same compound?
Answer: 99.2%

Question: What about the “Solubility” value [2, 4] of the same compound?
Answer: 1210.7 µg/mL (≈ 1990 µM)

Question: And the pH [2, 4]?
Answer: 2.72

Question: What about the Purity [2, 5] of the same compound?
Answer: 99.6%

Question: What about the “Solubility” value [2, 5] of the same compound?
Answer: 2018.8 µg/mL (≈ 3320 µM)

Question: What about the pH [2, 5] of the same compound?
Answer: 2.61

Question: What about the “Chiral purity (solids)” value [2, 6] of the same compound?
Answer: 99.7%

Question: What about the Purity [2, 6] of the same compound?
Answer: 99.5%

Question: What about the “Solubility” value [2, 6] of the same compound?
Answer: 342.6 µg/mL (≈ 563 µM)

Question: What about the pH [2, 6] of the same compound?
Answer: 2.78

Question: And the “Chiral purity (solids)” value [2, 7]?
Answer: 95.8%

Question: And the Purity [2, 7]?
Answer: 99.6%

Question: What about the pH [2, 7] of the same compound?
Answer: 2.63

Question: What about the “Solubility (μg/mL)” value ([2]; 2 mg/mL, Pure water, 2 h) of the same compound?
Answer: <LOQ

Question: And the “Chiral purity (solids)” value [2, 8]?
Answer: 99.7%

Question: What about the Purity [2, 8] of the same compound?
Answer: 99.5%

Question: And the pH [2, 8]?
Answer: 2.81

Question: What about the “Solubility (μg/mL)” value ([2]; 2 mg/mL, Pure water, 24 h) of the same compound?
Answer: <LOQ

Question: What about the “Chiral purity (solids)” value [2, 9] of the same compound?
Answer: 99.7%

Question: What about the Purity [2, 9] of the same compound?
Answer: 99.4%

Question: What about the pH [2, 9] of the same compound?
Answer: 2.61

Question: What about the Purity ([2]; 10 mg/mL, 0.5(w/w) MC(400 cP) and 2%(w/w) Vitamin E TPGS in water, 2 h) of the same compound?
Answer: 99.7%

Question: What about the “Chiral purity, liquid” value [2, 10] of the same compound?
Answer: 100%;

Question: What about the “Chiral purity, solid” value [2, 10] of the same compound?
Answer: 99.8%

Question: What about the pH [2, 10] of the same compound?
Answer: 1.89

Question: What about the “Chiral purity, liquid” value [2, 11] of the same compound?
Answer: 99.8%;

Question: And the “Chiral purity, solid” value [2, 11]?
Answer: 99.7%

Question: And the Purity [2, 11]?
Answer: 99.6%

Question: What about the pH [2, 11] of the same compound?
Answer: 1.86

Question: And the solubility at 2 h ([2]; 25 °C, aqueous with cosolvent or surfactant or cyclodextrin, thermodynamic from solid, 10 mg/mL, 0.5(w/w) MC(400 cP) and 2%(w/w) Vitamin E TPGS in water, 2 h)?
Answer: 3950 µg/mL (≈ 6480 µM)

Question: And the solubility at 24 h ([2]; 25 °C, aqueous with cosolvent or surfactant or cyclodextrin, thermodynamic from solid, 10 mg/mL, 0.5(w/w) MC(400 cP) and 2%(w/w) Vitamin E TPGS in water, 24 h)?
Answer: 3810 µg/mL (≈ 6260 µM)

Question: What about the Initial chiral purity ([2]; before suspension, listed as I-4 Form A) of the same compound?
Answer: Initial chiral purity: 99.5%

Question: And the solubility at 24 h ([2]; suspension in 0.5% (w/w) Tween 80 in water, 25 °C, aqueous with cosolvent or surfactant or cyclodextrin, thermodynamic from solid, 2 mg/mL, 0.5%(w/w) Tween 80 in water, 24 h)?
Answer: 16.3 µg/mL (≈ 26.8 µM)

Question: And the “Salt screening result (anti-solvent)” value ([3]; 1.0 equiv. methanesulfonic acid, Acetone/MTBE)?
Answer: + (I-4 Form A) (Salt hits)

Question: What about the “Chiral purity of salt screening solid” value ([3]; anti-solvent, 1.0 equiv. methanesulfonic acid, Acetone/MTBE) of the same compound?
Answer: Chiral purity: 98.3%

Question: And the “Chiral purity (by HPLC)” value [3, 12]?
Answer: 98.3%

Question: What about the “Crystallinity (By XRPD)” value [3, 12] of the same compound?
Answer: Low

— patent US20260125374A1, “PI3K-ALPHA INHIBITORS AND METHODS OF MAKING AND USING THE SAME” (Relay Therapeutics, Inc., priority 2021, published 2026)
